Test results from patent publication US20250041296A1, “NOVEL DOSING REGIMENS FOR MDM2 INHIBITORS” (NOVARTIS AG, priority 2018, published 2025).

Assays:
solid tumor subjects = assay: Clinical study CMBG453X2101, MBG453 single agent; type: in vivo, human; settings: any dose up to 1200 mg Q2W or Q4W
Protocol: (§1) The MBG453 single agent RD has been determined as 800 mg Q4W in solid tumor subjects primarily based on PK and PKPD modeling of target (TIM-3) occupancy. MBG453 at the dose level of 800 mg Q4W was predicted to give sustained target occupancy of 90% in tumor in >90% of subjects. […] MBG453 single agent is also being evaluated in AML/MDS subjects in the CPDR001X2105 study with Q4W and Q2W regimens.

AML/MDS subjects = assay: Clinical study CPDR001X2105, MBG453 single agent; type: in vivo, human; settings: 400 mg Q2W and 800 mg Q4W
Protocol: as §1
The RD in AML/MDS has not yet been determined, however it is not expected to be different from solid tumors, based on preliminary PK and safety data.

[1] = Population PK/PD model parameter estimates (NLME, Monolix) from the CHDM201X2101 dataset; set-up: species or system human; settings: method=FIXED
Excerpt: For model building the PK/PD dataset of CHDM201X2101 were used and an NLME estimation (Monolix 4.3.2) performed. The model structure and the parameter estimates are provided below. This provided inputs for R/shiny. The m/xR package were used for simulation of longitudinal data from the MLXTRAN model.

R/R AML subjects = assay: Clinical study CHDM201X2101, single agent HDM201; type: in vivo, human
Protocol: HDM201 is a novel investigational agent with promising single-agent activity in AML patients. Study CHDM201X2101 investigated several dose regimens of single agent HDM201 in R/R AML subjects. CR/CRi rate of 24% was reported in subjects with R/R AML who received oral HDM201 at a dose of 45 mg from D1 to D7 every 4 weeks (Q4W) (Regimen 2C), which was the dose assessed as recommended dose for expansion (RDE).
The starting dose and regimen selection for HDM201 in dose escalation is based on the previous Phase I dose escalation and expansion study of HDM201 as a single-agent in subjects with R/R AML ([HDM201X2101]). In this Phase I study, HDM201 was investigated in subjects with solid tumors and hematological malignancies. A total of 27 subjects with hematological malignancies (26 AML and one acute lymphoblastic leukemia (ALL)) have been enrolled across various regimens. […] According to HDM201X2101, Regimen 2C was determined to be the recommended Phase 2 dose (RP2D) for further development of HDM201 as a single-agent.
With this regimen, the RD has been determined as 45 mg HDM201 in hematological tumors in the CHDM201X2101 study. […] Proceedings of the American Association for Cancer Research Annual Meeting 2017; 2017 Apr. 1-5; Washington, DC. Philadelphia (PA): AACR; Cancer Res 2017; 77(13 Suppl):Abstract nr CT154. doi:10.1158/1538-7445.AM2017-CT154).

p53 = settings: preclinical cell and in vivo models; cited from earlier work
[2] = tested on: solid and hematological tumors; settings: versus original day 1 to day 7 regimen of a 28-day cycle; cited from earlier work
[3] = R/R AML subjects, single agent HDM201
[4] = subjects treated at RDE (Regimen 2C: 45 mg D1 to D7 Q4W)

| pop_Cl [1] | pop_V [1] | pop_ka [1] | tumor lysis syndrome (TLS) Grade 3 or 4 (R/R AML subjects; [4]) | Compound | safety signal (solid tumor subjects) | tolerability (AML/MDS subjects) | most common grade 3/4 AE reported as suspected to study treatment (R/R AML subjects; 27 subjects with hematological malignancies across various regimens) | CR/CRi rate (R/R AML subjects; R/R AML subjects, oral 45 mg D1 to D7 Q4W (Regimen 2C)) [%] | duration of responses (R/R AML subjects; [3]) | time at which response was seen (R/R AML subjects; [3]) | gastro-intestinal AEs, grade (R/R AML subjects; [4]) | effect on p53 function (p53) | anti-tumor activity when administration is shortened to 5 consecutive days [2] |
| --- | --- | --- | --- | --- | --- | --- | --- | --- | --- | --- | --- | --- | --- |
|  |  |  |  | MBG453: TIM-3 inhibitor MBG453 (Novartis), given by i.v. infusion | No significant safety signal | well tolerated |  |  |  |  |  |  |  |
| pop_Cl = 6.18 [method=FIXED], | pop_V = 119 [method=FIXED], | pop_ka = 0.489 [method=FIXED], | about 10% | COc1ncc(-c2nc3c(n2C(C)C)[C@H](c2ccc(Cl)cc2)N(c2cc(Cl)cn(C)c2=O)C3=O)c(OC)n1 [HDM201, (S)-5-(5-Chloro-1-methyl-2-oxo-1,2-dihydro-pyridin-3-yl)-6-(4-chloro-phenyl)-2-(2,4-dimethoxy-pyrimidin-5-yl)-1-isopropyl-5,6-dihydro-1H-pyrrolo[3,4-d]imidazol-4-one] |  |  | thrombocytopenia, neutropenia, anemia and Tumor Lysis Syndrome (TLS) | 24 | up to 152 days | within the first two cycles | only low grade | restore p53 function | relevant anti-tumor activity |
